Measurements taken from PMC12737022, “Evaluations of Sex Differences in Dosimetry in Rats Following Perfluorohexanesulfonamide (PFHxSA) Oral Exposure” (Toxics, 2025).
Several values for one entry are separate records, joined by “and”; a condition that tells them apart may be missing. Equal values may be shown once. Read-outs that look alike come from different tables or passages of the source.

Columns and labels:
[1] = Ultracentrifugation plasma protein binding assay, rat plasma; assay type: in vitro ADME; conditions: both sexes, SD
Procedure: Human and rat plasma were evaluated for plasma protein binding of PFHxSA and PFHxS using ultracentrifugation. Data generated in human plasma were obtained from an earlier study; for this study, data were generated in rat plasma following the same protocol as described by Smeltz et al.. SD rat plasma (pooled, mixed sex) was obtained from a commercial vendor (BioIVT, Westbury, NY, USA). Briefly, PFHxSA and PFHxS were added to the plasma to achieve a final assay concentration of 10 µM. Following a 1 h 37 °C incubation, 1 mL aliquots from each plasma solution were drawn in triplicate and transferred to polycarbonate ultracentrifuge tubes. These samples underwent ultracentrifugation (Beckman OptimaMax; Beckman Coulter Inc., Indianapolis, IN, USA) at 850,000× g for 4 h at 37 °C; after completion, the aqueous fraction (AF) was collected by transferring the supernatant to a new tube. Two sets of samples of the original PFAS-spiked whole plasma were also collected after a 1 h or a 5 h incubation at 37 °C. All samples were combined with 3 volumes of ice-cold ACN containing relevant internal standard, vigorously mixed, then centrifuged at 12,000× g for 10 min at 4 °C. Supernatants were collected and then stored at <−70 °C until analysis.
Targeted, quantitative analysis of in vitro hepatocyte metabolic stability and plasma protein binding assay samples was conducted on a Waters (Milford, MA, USA) Xevo-TQS micro ultra-high-performance liquid chromatography tandem mass spectrometry system (UPLC-MS/MS), modified with a PFAS analysis kit. Samples were analyzed in negative ion mode with UniSpray ionization. Samples were analyzed in triplicate, with a reference compound included to evaluate assay performance. A CORTECS T3 column (Waters; 3 mm × 100 mm, 2.7 µm) was used for chromatographic separation with a flow rate of 0.6 mL/min and a temperature of 55 °C. Gradient elution was used with mobile phase A (95:5 H2O/ACN) and mobile phase B (95:5 ACN/H2O), each with 2.5 mM of ammonium acetate added. More details are provided in Smeltz et al..
(§1) Intrinsic hepatic clearance (Clint) and fraction unbound in plasma (fup) were calculated from the experimental point estimate data as described in Dobreniecki et al.. Steady-state concentrations (Css) were derived based on zero-order uptake of an assumed daily dose from the gut (assuming 100% intestinal bioavailability) but considering hepatic clearance and non-metabolic renal clearance. Renal clearance was calculated using the glomerular filtration rate (a species-dependent constant) and the fraction unbound in blood (fub), estimated by adjusting the experimental fup for blood/plasma partitioning. The Css calculations, along with underlying species-specific physiologic scalars, are detailed in SI Texts S6 and S7.

[2] = In vitro-in vivo extrapolation (IVIVE) to estimate Css, rat
Procedure: as §1, with “S7. […]” for “S7.”
hepatocytes). In equation (C), the scalar 2000 is used to adjust the assay cell number to be consistent with units of 1 million cells in the Clint equation.
Text S7 In Vitro-In Vivo Extrapolation (IVIVE) Calculations
The pharmacokinetic equation used to estimate expected steady-state concentrations (Css) is based on zero-order uptake of a daily dose from the gut (assuming 100% bioavailability) with both nonmetabolic renal clearance (Clrenal) and hepatic clearance (Clhepatic) (Equation D). The chemical input rate (ko) is the product of the intake dosage and the model body weight; this represents the numerator of Equation D. The Clrenal calculation is shown in the first part of the denominator of Equation D; it is the product of the species-dependent glomerular filtration rate (GFR) and the unbound fraction in blood (fub) of the parent compound. The Clhepatic calculation is shown in the second part of the denominator of Equation D; it is the product of the species-dependent liver blood flow constant, the fub of the parent compound, and the experimentally derived intrinsic clearance (shown in Equation C) divided by the sum of these three values. All values used in Equation D are for first-order conditions of metabolism in the […]

[3] = test system: human hepatocytes; set-up: method as in Crizer et al. [59]; conditions: ref Crizer et al. [59]; cited from earlier work
[4] = Liver-to-plasma partitioning (Kp); assay type: in vivo, rat; conditions: for Kp at 120 h: po
Procedure: Liver-to-plasma partitioning (Kp) for PFHxSA was assessed for each sex (SI Text S8, Table 6). There were no sex differences in PFHxSA Kp values. […] Refer to SI Table S15 for Kp results for individual rats. […]
Text S8 Liver-to-Plasma Partitioning Coefficient Calculation
Concentrations (µM) of PFHxSA in liver and plasma were used to calculate experimental liver-to-
plasma (Kp) partitioning values for both sexes across all dose levels using Equation E.
(E) K ௣ = Concentration௢௥௚௔௡Concentration௣௟௔௦௠௔

[5] = set-up: method as in Smeltz et al. [60]; conditions: ref Smeltz et al. [60], cited from earlier work

SMILES: NS(=O)(=O)C(F)(F)C(F)(F)C(F)(F)C(F)(F)C(F)(F)C(F)(F)F [PFHxSA, Perfluorohexanesulfonamide]
- fraction unbound at 1 h, 10 µM ([1]; blood (estimated from fup in plasma), Rat, fup adjusted for blood/plasma partitioning, read-out: fub (fraction unbound in blood)): 0.0018
- fraction unbound at 1 h, 10 µM ([1]; Rat plasma, 10 µM, ultracentrifugation, read-out: fup (fraction unbound in plasma)): 0.001
- Css (steady-state concentration) ([2]; Rat, IVIVE-derived, assumes 1 mg/kg/day exposure): 138 µM
- CL renal ([2]; Rat, non-metabolic, GFR x fub, read-out: Clrenal (renal clearance) (converted)): 0.00167 mL/min
- IVIVE-derived Css higher than in vivo plasma concentration ([2]; rat, 1 mg/kg/day, female and male rat plasma, respectively): 6.5–12.1 fold and 6.5–12 fold
- Clhep (hepatic clearance) [3]: 0 ^2 L/h
- Female Partition Coefficient (Kp), liver-plasma ([4]; PFHxSA 0.1 mg/kg/day oral 5 days, female, individual rats): 0.516 and 0.491 and 0.293 and 0.378
- Male Partition Coefficient (Kp), liver-plasma ([4]; PFHxSA 0.1 mg/kg/day oral 5 days, male, individual rats): 0.662 and 0.433 and 0.319 and 0.860 and 0.744
- Female Partition Coefficient (Kp), liver-plasma ([4]; PFHxSA 0.3 mg/kg/day oral 5 days, female, individual rats): 0.633 and 0.239 and 0.486 and 0.499 and 0.302
- Male Partition Coefficient (Kp), liver-plasma ([4]; PFHxSA 0.3 mg/kg/day oral 5 days, male, individual rats): 0.215 and 0.362 and 0.134 and 0.315 and 0.255
- Female Partition Coefficient (Kp), liver-plasma ([4]; PFHxSA 1 mg/kg/day oral 5 days, female, individual rats): 0.197 and 0.224 and 0.122 and 0.325
- Male Partition Coefficient (Kp), liver-plasma ([4]; PFHxSA 1 mg/kg/day oral 5 days, male, individual rats): 0.233 and 0.174 and 0.293 and 0.249
- Female Partition Coefficient (Kp), liver-plasma ([4]; PFHxSA 3 mg/kg/day oral 5 days, female, individual rats): 0.280 and 0.239 and 0.244
- Male Partition Coefficient (Kp), liver-plasma ([4]; PFHxSA 3 mg/kg/day oral 5 days, male, individual rats): 0.193 and 0.153 and 0.235 and 0.105 and 0.244
- Female Partition Coefficient (Kp), liver-plasma ([4]; PFHxSA 10 mg/kg/day oral 5 days, female, individual rats): 0.145 and 0.119 and 0.113 (2×)
- Male Partition Coefficient (Kp), liver-plasma ([4]; PFHxSA 10 mg/kg/day oral 5 days, male, individual rats): 0.249 and 0.178 and 0.194
- Female Partition Coefficient (Kp), liver-plasma ([4]; PFHxSA 30 mg/kg/day oral 5 days, female, individual rats): 0.134 and 0.142 and 0.162 and 0.147
- Male Partition Coefficient (Kp), liver-plasma ([4]; PFHxSA 30 mg/kg/day oral 5 days, male, individual rats): 0.142 (2×) and 0.145
- Female Partition Coefficient (Kp), liver-plasma ([4]; PFHxSA 100 mg/kg/day oral 5 days, female, individual rats): 0.187 and 0.344 and 0.214 and 0.213
- Male Partition Coefficient (Kp), liver-plasma ([4]; PFHxSA 100 mg/kg/day oral 5 days, male, individual rats): 0.506 and 0.754 and 0.306 and 0.230 and 0.221
- Kp at 24 h ([4]; both sexes, Sprague Dawley (Crl:CD(SD)), rat, liver and plasma, oral, both sexes across all tested doses): 0.13 to 0.6
- Kp at 120 h ([4]; female, Sprague Dawley (Crl:CD(SD)), rat, liver and plasma, 0.1 mg/kg/day, PFHxSA 0.1 mg/kg/day oral 5 days, female, individual rats, read-out: Female Partition Coefficient (Kp), liver-plasma): 0.424
- Kp at 120 h ([4]; female, Sprague Dawley (Crl:CD(SD)), rat, liver and plasma, 0.3 mg/kg/day, PFHxSA 0.3 mg/kg/day oral 5 days, female rats, mean ± SD, read-out: PFHxSA liver-to-plasma Kp, Female Rats): 0.431 ± 0.16
- Kp at 120 h ([4]; female, Sprague Dawley (Crl:CD(SD)), rat, liver and plasma, 1 mg/kg/day, PFHxSA 1 mg/kg/day oral 5 days, female rats, mean ± SD, read-out: PFHxSA liver-to-plasma Kp, Female Rats): 0.21 ± 0.074
- Kp at 120 h ([4]; female, Sprague Dawley (Crl:CD(SD)), rat, liver and plasma, 3 mg/kg/day, PFHxSA 3 mg/kg/day oral 5 days, female rats, mean ± SD, read-out: PFHxSA liver-to-plasma Kp, Female Rats): 0.222 ± 0.048
- Kp at 120 h ([4]; female, Sprague Dawley (Crl:CD(SD)), rat, liver and plasma, 3 mg/kg/day, PFHxSA 3 mg/kg/day oral 5 days, female, individual rats, read-out: Female Partition Coefficient (Kp), liver-plasma): 0.158
- Kp at 120 h ([4]; female, Sprague Dawley (Crl:CD(SD)), rat, liver and plasma, 10 mg/kg/day, PFHxSA 10 mg/kg/day oral 5 days, female rats, mean ± SD, read-out: PFHxSA liver-to-plasma Kp, Female Rats): 0.135 ± 0.03
- Kp at 120 h ([4]; female, Sprague Dawley (Crl:CD(SD)), rat, liver and plasma, 10 mg/kg/day, PFHxSA 10 mg/kg/day oral 5 days, female, individual rats, read-out: Female Partition Coefficient (Kp), liver-plasma): 0.183
- Kp at 120 h ([4]; female, Sprague Dawley (Crl:CD(SD)), rat, liver and plasma, 30 mg/kg/day, PFHxSA 30 mg/kg/day oral 5 days, female rats, mean ± SD, read-out: PFHxSA liver-to-plasma Kp, Female Rats): 0.148 ± 0.011
- Kp at 120 h ([4]; female, Sprague Dawley (Crl:CD(SD)), rat, liver and plasma, 30 mg/kg/day, PFHxSA 30 mg/kg/day oral 5 days, female, individual rats, read-out: Female Partition Coefficient (Kp), liver-plasma): 0.154
- Kp at 120 h ([4]; female, Sprague Dawley (Crl:CD(SD)), rat, liver and plasma, 100 mg/kg/day, PFHxSA 100 mg/kg/day oral 5 days, female rats, mean ± SD, read-out: PFHxSA liver-to-plasma Kp, Female Rats): 0.222 ± 0.072
- Kp at 120 h ([4]; female, Sprague Dawley (Crl:CD(SD)), rat, liver/plasma, 0.1 mg/kg/day, PFHxSA 0.1 mg/kg/day oral 5 days, female rats, mean ± SD, read-out: PFHxSA liver-to-plasma Kp, Female Rats): 0.42 ± 0.09
- Kp at 120 h ([4]; male, Sprague Dawley (Crl:CD(SD)), rat, liver and plasma, 1 mg/kg/day, PFHxSA 1 mg/kg/day oral 5 days, male rats, mean ± SD, read-out: PFHxSA liver-to-plasma Kp, Male Rats): 0.223 ± 0.053
- Kp at 120 h ([4]; male, Sprague Dawley (Crl:CD(SD)), rat, liver and plasma, 1 mg/kg/day, PFHxSA 1 mg/kg/day oral 5 days, male, individual rats, read-out: Male Partition Coefficient (Kp), liver-plasma): 0.166
- Kp at 120 h ([4]; male, Sprague Dawley (Crl:CD(SD)), rat, liver and plasma, 3 mg/kg/day, PFHxSA 3 mg/kg/day oral 5 days, male rats, mean ± SD, read-out: PFHxSA liver-to-plasma Kp, Male Rats): 0.186 ± 0.058
- Kp at 120 h ([4]; male, Sprague Dawley (Crl:CD(SD)), rat, liver and plasma, 10 mg/kg/day, PFHxSA 10 mg/kg/day oral 5 days, male rats, mean ± SD, read-out: PFHxSA liver-to-plasma Kp, Male Rats): 0.189 ± 0.041
- Kp at 120 h ([4]; male, Sprague Dawley (Crl:CD(SD)), rat, liver and plasma, 10 mg/kg/day, PFHxSA 10 mg/kg/day oral 5 days, male, individual rats, read-out: Male Partition Coefficient (Kp), liver-plasma): 0.191
- Kp at 120 h ([4]; male, Sprague Dawley (Crl:CD(SD)), rat, liver and plasma, 30 mg/kg/day, PFHxSA 30 mg/kg/day oral 5 days, male rats, mean ± SD, read-out: PFHxSA liver-to-plasma Kp, Male Rats): 0.144 ± 0.0075
- Kp at 120 h ([4]; male, Sprague Dawley (Crl:CD(SD)), rat, liver and plasma, 30 mg/kg/day, PFHxSA 30 mg/kg/day oral 5 days, male, individual rats, read-out: Male Partition Coefficient (Kp), liver-plasma): 0.156
- Kp at 120 h ([4]; male, Sprague Dawley (Crl:CD(SD)), rat, liver and plasma, 100 mg/kg/day, PFHxSA 100 mg/kg/day oral 5 days, male rats, mean ± SD, read-out: PFHxSA liver-to-plasma Kp, Male Rats): 0.403 ± 0.23
- Kp at 120 h ([4]; male, Sprague Dawley (Crl:CD(SD)), rat, liver/plasma, 0.1 mg/kg/day, PFHxSA 0.1 mg/kg/day oral 5 days, male rats, mean ± SD, read-out: PFHxSA liver-to-plasma Kp, Male Rats): 0.604 ± 0.22
- Kp at 120 h ([4]; male, Sprague Dawley (Crl:CD(SD)), rat, liver/plasma, 0.3 mg/kg/day, PFHxSA 0.3 mg/kg/day oral 5 days, male rats, mean ± SD, read-out: PFHxSA liver-to-plasma Kp, Male Rats): 0.256 ± 0.088
- fup (fraction unbound in plasma) ([5]; Human plasma): 0.0004 ^1
- fub (fraction unbound in blood) ([5]; Human): 0.0007 ^1
